Laboratory results: ChEMBL document CHEMBL4813965, “Discovery of CYR715: A novel carboxylic acid-containing soluble guanylate cyclase stimulator” (Bioorg Med Chem Lett, 2021)
Converted amounts (≈) assume the structure as drawn.

How the values were obtained:
[1] = Drug metabolism in rat assessed as formation of reactive and migrated acyl glucuronides metabolites; assay type: ADME
[2] = Apparent permeability across apical to basolateral side of dog MDR1-MDCK2 cells; assay type: ADME, cell-based, Canis lupus familiaris, MDCK-II; conditions: MDCK-MDR1
[3] = Solubility of the compound at pH 7.0; assay type: physicochemical; conditions: buffer
[4] = AUC in rat at 1 mg/kg, po; assay type: ADME, organism-based; set-up: dose 1 mg/kg; conditions: in vivo
[5] = Oral bioavailability in rat at 1 mg/kg; assay type: ADME, organism-based; conditions: in vivo

| Drug metabolism [1] | Papp A→B [2] [×10⁻⁶ cm/s] | solubility [3] [µg/mL] | AUC [4] [ng·h/mL] | bioavailability [5] [%] | SMILES |
| --- | --- | --- | --- | --- | --- |
| Metabolite_Detected |  |  |  |  | C[C@H]1CCCN(c2nc(-c3cc(-c4ccon4)n(Cc4ccccc4F)n3)ncc2F)[C@H]1C(=O)O |
| Metabolite_Detected |  |  |  |  | O=C(O)C1CCN(c2nc(-c3cc(-c4ccon4)n(Cc4ccccc4F)n3)ncc2F)CC1 |
| Metabolite_Detected | 40 | 21 (≈ 43.7 µM) | 3700 | > 100 | C[C@@H]1CCCN(c2nc(-c3cc(-c4ccon4)n(Cc4ccccc4F)n3)ncc2F)[C@@H]1C(=O)O |
| Metabolite_Detected |  |  |  |  | O=C(O)[C@H]1CCCCN1c1nc(-c2cc(-c3ccon3)n(Cc3ccccc3F)n2)ncc1F |
|  | 24 | 3 (≈ 8.44 µM) | 25000 |  | Oc1nc(-c2cc(-c3ccon3)n(Cc3ccccc3F)n2)ncc1F |
| Metabolite_Detected |  |  |  |  | O=C(O)C1CCCN(c2nc(-c3cc(-c4ccon4)n(Cc4ccccc4F)n3)ncc2F)C1 (racemic) |
| Metabolite_Detected |  |  |  |  | O=C(O)[C@@H]1CCCCN1c1nc(-c2cc(-c3ccon3)n(Cc3ccccc3F)n2)ncc1F |
